# Data: patent US11141454B2, “Application of earthworm protein peptide in preparation of medicine for preventing and/or treating thrombotic disease” (Zhongshiduqing (Shandong) Biotech Co., Ltd., priority 2019, dated 2021)
# System: carrageenan-induced rat tail thrombosis
# Assay: Carrageenan-induced rat tail thrombosis (black tail rate and length)
# Format: in vivo, SD rats
# Conditions: for Black tail rates of rats (%): Aspirin group 7.72 mg/kg intragastric
# Experimental: The carrageenan was weighed and prepared into a carrageenan solution (2%) with a concentration of […] using 0.9% NaCl; rats were weighed and injected with carrageenan subcutaneously at a dose of 80 mg/kg; intragastric administration treatment was performed on a prevention group 5 days in advance; after model making for 30 min, intragastric administration treatment was performed on the remaining four groups other than the prevention group according to relevant doses, and then the rats were placed in a constant temperature environment of (18±2)° C., and free diet and water drinking were provided.
# A total of 42 SD rats were randomly selected for thrombus model making by using carrageenan. The physiological activities of the rats were observed. The normal saline was used as a blank control group, and an aspirin group was used as a positive control group. A polypeptide (the earthworm protein peptide containing four anticoagulant active polypeptides, namely Leu-Val-Thr-Leu-Gly-Asn-Glu, Leu-Leu-Ala-Pro-Pro, Leu-Leu-Pro-Ala-Pro and Thr-Val-Ala-Pro-Phe prepared in Embodiment 1) and relevant medicines were dissolved with normal saline, and the intragastric administration dose was operated according to Table 2 below. […] After injection of carrageenan in each experimental group and normal saline group, rats with different degrees of blood stasis and black tail appeared 3 to 14 hours after model making, and gradually expanded to the tail root. The measured data was processed by spss18.0 software. In order to compare the differences between different groups, one-way analysis of variance was used. […] If P was smaller than 0.05, it indicated there was significant difference. […] The test results are shown in Table 3 and Table 4 below and in FIGS. 9 to 23.
smiles,measurement,setting,value
"CC(=O)Oc1ccccc1C(=O)O [Aspirin, aspirin]",Black tail rates of rats (%),24 h,0%
same,Black tail rates of rats (%),36 h,16.7%
same,Black tail rates of rats (%),48 h,16.7%
same,Black tail rates of rats (%),56 h,16.7%
same,Black tail rates of rats (%),72 h,50%
same,Black tail rates of rats (%),96 h,67%
same,black tail inhibition ratio compared with the normal saline group,"aspirin group (7.72 mg/kg), after 48 hours, FIG. 9",75.8%
same,length of tail thrombogenesis (black tail length),"aspirin group (7.72 mg/kg), after 48 hours, normal saline 100.13 mm",24.24 mm
same,number of rats with obvious black tail signs,"aspirin group, after 72 hours, FIG. 11",three
